Assay results taken from US20240417428A1, “POLYPEPTIDE FOR INHIBITING TRPM8 AND USE THEREOF” (ZHEJIANG UNIVERSITY, priority 2021, published 2024).
Where a SMILES comes first, the peptide text is derived from it.

Key:
[1] = system: CCI-induced static allodynia; assay: Chronic constriction injury (CCI) model of neuropathic pain: static allodynia; type: in vivo; settings: CCI rats
Text: Male Sprague Dawley rats (purchased from Shanghai SLAC Laboratory Animals, LLC, 7 weeks old at the beginning of the experiment, n=7-10 per treatment) were used. CCI status was formed according to the method of Bennett G J and Xie Y K (Pain 1988, 33:87-107). Rats were anesthetized by intraperitoneal injection of sodium pentobarbital. The left common sciatic nerve was made to be exposed in the middle of the thigh in a state deprived of adherent tissue, and 4-0 silk thread (Ethicon Inc.) was utilized around it and four passes were loosely ligated at intervals of approximately 1 mm. Sham surgery was performed in the same manner except for sciatic nerve ligation. CCI surgery was performed after 2-3 weeks as described in Field M J et al. (Pain 1999, 83:303-311) documented, static allodynia was evaluated by Von Frey Hairs (VFH). Before starting the experiment, the experimental animals were acclimatized to the grid bottom cage. […] Each VFH was pressed against the phasic paw for 6 seconds, or until a withdrawal response occurred. When one withdrawal response occurred, the experiment was repeated by pressing the VFH at a weaker pressure until no withdrawal response occurred. The minimum pressure required to induce a response was recorded as a withdrawal paw threshold (PWT). If the experimental animal responded below an innocuous 1.4 g VFH, it was determined to be in static allodynia. […]

[2] = system: oxaliplatin-induced mechanical allodynia; assay: Oxaliplatin-induced mechanical allodynia, von Frey test; type: in vivo, mice; settings: 3.5 μg/20 μl i.pl., day 10 after oxaliplatin, compared to saline
Method: Adult male CD1 mice (6-8 weeks old) were used as experimental animals for behavioral experiments and primary cultures of DRG neurons. Mice were raised in the condition of 12 h light/12 h dark of light cycle with adequate standard chow and water. All animal protocols were approved by the Institutional Animal Care and Use Committee (IACUC) of Zhejiang University.
All of mice were habituated to the behavioral testing environment for 1-to-2 hours in 2-to-3 days before the behavioral testing. Single intraperitoneal (i.p.) injection of oxaliplatin (6 mg/kg body weight) was given to generate chemotherapy-induced neuropathic pain. Neuropathic pain behaviors were tested about 10 days after oxaliplatin injection.
Mechanical allodynia was assessed by measuring paw withdrawal thresholds in von Frey test. The paw withdrawal thresholds of mice in the von Frey test were tested according to Dixon'sup-down method. […] The vonFrey hairs with different stiffness were selected in turn to simulate, with 5 s interval per two simulations, and total six simulations were completed, the paw withdrawal thresholds (PWT) of mice were assessed according to the responding amount table The von Frey test was respectively performed on day 10 pre- or post-treatment with Oxaliplatin, saline or 3.5 μg/20 μL DeC-1.2 was intraplantarly injected to assess its analgesic effect on oxaliplatin-induced allodynia.

[3] = system: CCI-induced cold allodynia; assay: Chronic constriction injury (CCI) model of neuropathic pain: cold allodynia; type: in vivo; settings: CCI rats
Text: Male Sprague-Dawley rats (purchased from Shanghai SLAC Laboratory Animal Co., Ltd. at the beginning of the experiment for 7 weeks, n=7-10/treatment) were used. CCI status was formed according to the method of Bennett G J and Xie Y K (Pain 1988, 33:87-107). Rats were anesthetized by intraperitoneal injection of sodium pentobarbital. The left common sciatic nerve was made to be exposed in the middle of the thigh in a state deprived of adherent tissue, and 4-0 silk thread (Ethicon Inc.) was utilized around it and four passes were loosely ligated at approximately 1-mm intervals. Sham surgery was performed in the same manner except for sciatic nerve ligation. After 1-2 weeks after CCI surgery, as documented in Tanimoto-Mori Setal. (BehavPharmacol., 19:85-90, 2008), The cold allodynia was evaluated by using a cooling plate (LHP-1700CP, TECA) with a temperature controller (Mode 13300-0, CAL Controls Inc.). The animals were acclimatized to a device consisting of a transparent acrylic box (10×12×12 cm) on a stainless steel plate (15×33 cm). The surface of the cooling plate was maintained at 10° C., and the temperature of the plate was continuously monitored with an accuracy of 0.1° C. To perform the experiment, rats were loaded on the cooling plate and the polypeptide DeC-1.2 was administered before and after a cutoff value of 120 seconds, and the paw withdrawal latency (PWL) was measured. […]

## C[C@@H]1NC(=O)[C@H](CCCNC(=N)N)NC(=O)[C@H](CC(=O)O)NC(=O)[C@H](CCCNC(=N)N)NC(=O)[C@H](CCCNC(=N)N)NC(=O)[C@@H](N)CSSC[C@@H](C(=O)O)NC(=O)[C@H](CCCNC(=N)N)NC(=O)[C@H](CCC(N)=O)NC(=O)[C@H](CCCNC(=N)N)NC(=O)[C@H](Cc2ccc(O)cc2)NC(=O)[C@H](Cc2c[nH]cn2)NC(=O)[C@H](CCCNC(=N)N)NC1=O [DeC-1.2, CRRDRARHYRQRC] (HELM PEPTIDE1{C.R.R.D.R.A.R.H.Y.R.Q.R.C}$PEPTIDE1,PEPTIDE1,1:R3-13:R3$$$V2.0; N-terminus and C-terminus assumed)
[1]
  activity against static allodynia (von Frey hairs): exhibited strong activity
[2]
  paw withdrawal threshold in von Frey test: did not change paw withdrawal threshold
[3]
  activity against cold allodynia (paw withdrawal latency, 10° C. cooling plate): exhibited strong activity
